Data as given in ChEMBL document CHEMBL3727360, “Tetrahydroisoquinolines as selective nadph oxidase 2 inhibitors” (2014).
Activity calls are given as the source filed them. The calls are words filed in the database; no cut-off is given here.

What was measured:
NADPH oxidase 4 = biological target: T1, NADPH oxidase 4 (Homo sapiens, UniProt Q9NPH5); test: Inhibition of human Nox4 expressed in COS7 cells assessed as inhibition of PMA-induced H2O2 production by amplex red dye based fluorescence assay; assay type: cell-based; conditions: cos-7
T1 sequence (Q9NPH5 whole entry): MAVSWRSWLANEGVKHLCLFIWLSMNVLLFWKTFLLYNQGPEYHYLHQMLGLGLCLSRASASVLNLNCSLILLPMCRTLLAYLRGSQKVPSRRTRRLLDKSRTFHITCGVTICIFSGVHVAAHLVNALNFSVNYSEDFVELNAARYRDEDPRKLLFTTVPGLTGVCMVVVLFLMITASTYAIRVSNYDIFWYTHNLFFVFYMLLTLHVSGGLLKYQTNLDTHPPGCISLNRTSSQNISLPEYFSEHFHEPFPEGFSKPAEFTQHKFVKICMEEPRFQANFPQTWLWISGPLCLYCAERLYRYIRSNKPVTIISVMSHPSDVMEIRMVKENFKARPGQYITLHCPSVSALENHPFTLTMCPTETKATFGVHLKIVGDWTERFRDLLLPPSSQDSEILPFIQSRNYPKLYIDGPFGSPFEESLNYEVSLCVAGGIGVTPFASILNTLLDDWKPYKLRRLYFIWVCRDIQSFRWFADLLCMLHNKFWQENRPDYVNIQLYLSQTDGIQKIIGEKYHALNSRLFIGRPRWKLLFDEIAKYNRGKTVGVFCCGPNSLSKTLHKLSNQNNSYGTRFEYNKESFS

[1] = biological target: Xanthine dehydrogenase/oxidase (Bos taurus, UniProt P80457); test: Inhibition of bovine xanthine-oxidase assessed as H2O2 production at 25 to 50 uM by amplex red dye based fluorescence assay; conditions: cattle
Sequence of Xanthine dehydrogenase/oxidase (P80457 whole entry): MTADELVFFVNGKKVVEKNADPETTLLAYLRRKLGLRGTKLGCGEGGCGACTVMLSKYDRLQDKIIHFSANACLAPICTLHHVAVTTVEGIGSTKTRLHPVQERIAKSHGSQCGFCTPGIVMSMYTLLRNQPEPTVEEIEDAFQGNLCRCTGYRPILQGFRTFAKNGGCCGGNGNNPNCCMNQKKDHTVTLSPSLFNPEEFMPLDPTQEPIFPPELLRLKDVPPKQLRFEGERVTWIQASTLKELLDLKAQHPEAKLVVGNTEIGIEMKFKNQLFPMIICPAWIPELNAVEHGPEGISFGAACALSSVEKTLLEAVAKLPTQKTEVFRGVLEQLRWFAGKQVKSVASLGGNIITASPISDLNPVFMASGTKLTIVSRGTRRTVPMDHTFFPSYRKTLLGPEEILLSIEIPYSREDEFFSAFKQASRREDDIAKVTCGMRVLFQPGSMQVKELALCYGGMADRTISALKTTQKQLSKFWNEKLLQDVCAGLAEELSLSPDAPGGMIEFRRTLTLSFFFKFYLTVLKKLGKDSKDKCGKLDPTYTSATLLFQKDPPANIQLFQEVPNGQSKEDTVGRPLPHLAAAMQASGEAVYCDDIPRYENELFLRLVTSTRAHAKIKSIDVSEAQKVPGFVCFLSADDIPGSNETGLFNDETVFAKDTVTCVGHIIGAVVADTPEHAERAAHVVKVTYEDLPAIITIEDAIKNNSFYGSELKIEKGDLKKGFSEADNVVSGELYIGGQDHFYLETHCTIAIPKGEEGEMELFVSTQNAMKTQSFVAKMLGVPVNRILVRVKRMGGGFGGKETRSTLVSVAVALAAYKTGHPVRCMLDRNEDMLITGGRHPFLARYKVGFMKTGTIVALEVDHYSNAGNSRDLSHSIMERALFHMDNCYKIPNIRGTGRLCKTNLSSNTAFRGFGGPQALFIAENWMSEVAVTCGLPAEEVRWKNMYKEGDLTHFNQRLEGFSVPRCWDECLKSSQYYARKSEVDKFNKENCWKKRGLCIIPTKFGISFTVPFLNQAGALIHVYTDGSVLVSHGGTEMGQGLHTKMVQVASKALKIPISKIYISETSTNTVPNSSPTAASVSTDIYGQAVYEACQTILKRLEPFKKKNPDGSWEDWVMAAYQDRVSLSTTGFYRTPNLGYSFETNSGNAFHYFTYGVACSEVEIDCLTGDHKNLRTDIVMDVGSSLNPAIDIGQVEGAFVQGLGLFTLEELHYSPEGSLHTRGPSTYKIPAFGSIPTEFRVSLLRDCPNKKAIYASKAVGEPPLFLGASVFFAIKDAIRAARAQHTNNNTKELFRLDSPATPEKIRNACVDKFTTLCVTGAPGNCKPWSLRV

[2] = Cytotoxicity against african green monkey COS7 cells at high concentration for 15 mins by fluorescence analysis; assay type: cell-based; conditions: chlorocebus aethiops, cos-7, 0.25 h
[3] = biological target: T2, NADPH oxidase 2 (Homo sapiens) (UniProt P04839); test: Inhibition of human Nox2 expressed in COS7 cells co-transfected with human p22-phox,p47phox and p67-phox assessed as inhibition of LiDS-induced superoxide generation at 6.3 uM preincubated for 15 mins followed by addition of LiDS and NADPH; assay type: cell-based; conditions: COS-7
T2 sequence (whole entry): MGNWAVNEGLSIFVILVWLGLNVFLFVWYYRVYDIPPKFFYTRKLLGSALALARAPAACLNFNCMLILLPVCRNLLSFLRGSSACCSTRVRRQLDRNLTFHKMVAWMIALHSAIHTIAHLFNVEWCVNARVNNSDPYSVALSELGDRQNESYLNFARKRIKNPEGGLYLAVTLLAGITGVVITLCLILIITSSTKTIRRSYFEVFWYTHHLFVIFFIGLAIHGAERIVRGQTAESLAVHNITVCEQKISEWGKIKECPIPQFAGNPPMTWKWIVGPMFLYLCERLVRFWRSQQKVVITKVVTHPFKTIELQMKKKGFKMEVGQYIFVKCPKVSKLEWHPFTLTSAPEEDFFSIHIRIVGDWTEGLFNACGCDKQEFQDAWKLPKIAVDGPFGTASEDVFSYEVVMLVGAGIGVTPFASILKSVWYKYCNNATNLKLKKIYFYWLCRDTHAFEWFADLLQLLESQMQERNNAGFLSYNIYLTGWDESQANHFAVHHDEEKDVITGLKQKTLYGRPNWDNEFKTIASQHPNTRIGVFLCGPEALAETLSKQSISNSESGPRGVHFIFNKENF

HPAEC [4] = test: Inhibition of high-glucose-stimulated superoxide production in HPAEC cells at 25 uM measured after 24 hrs; assay type: functional, cell-based; conditions: Homo sapiens
HPAEC [5] = test: Inhibition of angiotensin-2-stimulated superoxide production in HPAEC cells at 25 uM measured after 24 hrs; assay type: functional, cell-based; conditions: Homo sapiens
[6] = biological target: T2, NADPH oxidase 2 (Homo sapiens); test: Inhibition of human Nox2 expressed in COS7 cells co-transfected with human p22-phox,p47phox and p67-phox assessed as inhibition of PMA-induced ROS production at 10 uM; assay type: cell-based; conditions: COS-7
[7] = biological target: T3, NADPH oxidase 1 (Homo sapiens) (UniProt Q9Y5S8); test: Inhibition of human Nox1 expressed in COS7 cells co-transfected with human co-transfected with human NOXO1/NOXA1 assessed as inhibition of PMA-induced ROS production at 10 uM; assay type: cell-based; conditions: COS-7
T3 sequence (whole entry): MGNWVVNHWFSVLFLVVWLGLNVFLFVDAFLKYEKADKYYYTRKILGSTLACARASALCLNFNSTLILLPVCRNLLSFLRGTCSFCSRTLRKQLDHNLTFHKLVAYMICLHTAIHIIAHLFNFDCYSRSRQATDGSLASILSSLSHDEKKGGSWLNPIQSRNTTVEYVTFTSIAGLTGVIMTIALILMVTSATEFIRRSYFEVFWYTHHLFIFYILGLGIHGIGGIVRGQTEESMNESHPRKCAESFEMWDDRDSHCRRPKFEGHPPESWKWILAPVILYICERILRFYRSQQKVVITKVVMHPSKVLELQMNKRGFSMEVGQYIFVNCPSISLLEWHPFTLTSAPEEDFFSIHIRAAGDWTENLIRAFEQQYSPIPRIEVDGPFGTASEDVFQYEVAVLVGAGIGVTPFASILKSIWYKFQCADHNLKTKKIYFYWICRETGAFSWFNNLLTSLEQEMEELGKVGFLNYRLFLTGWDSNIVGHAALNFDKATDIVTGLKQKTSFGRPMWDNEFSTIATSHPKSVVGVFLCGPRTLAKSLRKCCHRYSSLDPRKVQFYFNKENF

Cardiac muscle cell [8] = test: Inhibition of high-glucose-stimulated ROS production in rat cardiomyocyte at 25 uM; assay type: functional
Cardiac muscle cell [9] = test: Inhibition of high-glucose-stimulated hypertrophy in rat cardiomyocyte at 25 uM; assay type: functional
Fibroblast = test: Inhibition of PMA-induced ROS production in human fibroblast at 10 uM; assay type: functional, cell-based
NADPH oxidase 2 [10] = biological target: T4, NADPH oxidase 2 (Homo sapiens, UniProt P04839); test: Inhibition of human Nox2 expressed in COS7 cells co-transfected with human p22-phox,p47phox and p67-phox assessed as inhibition of PMA-induced superoxide generation by L-012 chemiluminescence analysis; assay type: cell-based; conditions: cos-7
T4 sequence (P04839 whole entry): T2 sequence (whole entry)

NADPH oxidase 2 [11] = biological target: T4, NADPH oxidase 2; test: Inhibition of human Nox2 expressed in COS7 cells co-transfected with human p22-phox,p47phox and p67-phox assessed as inhibition of PMA-induced H2O2 production by amplex red dye based fluorescence assay; assay type: cell-based; conditions: cos-7
NADPH oxidase 1 = biological target: T5, NADPH oxidase 1 (Homo sapiens, UniProt Q9Y5S8); test: Inhibition of human Nox1 expressed in COS7 cells co-transfected with human NOXO1/NOXA1 assessed as inhibition of PMA-induced superoxide generation by L-012 chemiluminescence analysis; assay type: cell-based; conditions: cos-7
T5 sequence (Q9Y5S8 whole entry): T3 sequence (whole entry)

SMILES | IC50 (NADPH oxidase 4) | inhibition (INH) [1] | also measured
C=C(C)C[C@@H]1N[C@H]2CC(C)(C)[C@@H]1c1c(Br)ccc(Br)c12 | Not Active | Not Active | Activity [2]: Toxic
C=C(C)CC1NC2CC(C)(C)C1c1ccccc12 (racemic) | Not Active | Not Active | –
CC(C)CC1NC2CC(C)(C)C1c1c(Br)cccc12 (racemic) | – | Not Active | Activity [2]: Toxic
C=C(C)CC1C2c3ccccc3C(CC2(C)C)N1Cc1cccc(F)c1 (racemic) | – | Not Active | –
C=C(C)CC1C2c3c(Br)cccc3C(CC2(C)C)N1Cc1ccnc2ccccc12 (racemic) | Not Active | Not Active | –
C=C(C)CC1NC2CC(C)(C)C1c1c(-c3ccc(Cl)c(Cl)c3)cccc12 (racemic) | – | Not Active | –
C=C(C)C[C@@H]1N[C@H]2CC(C)(C)[C@@H]1c1c(-c3cccnc3)cccc12 (racemic) | – | – | IC50 (NADPH oxidase 2 [10]): Not Active; IC50 (NADPH oxidase 2 [11]): Not Active
C=C(C)CC1C2c3c(-c4ccc(Cl)c(Cl)c4)cccc3C(CC2(C)C)N1Cc1ccc2c(c1)OCO2 (racemic) | Not Active | Not Active | –
C=C(C)CC1C2c3c(Br)cccc3C(CC2(C)C)N1S(=O)(=O)c1ccc(F)cc1 (racemic) | Not Active | Not Active | –

More lines, main results first:

IC50 (NADPH oxidase 4) | inhibition (INH) [1] | SMILES | also measured
– | Not Active | C=C(C)CC1NC2CC(C)(C)C1c1c(Br)cccc12 (racemic) | inhibition [3]: Active; Activity [2]: Toxic
Not Active | Not Active | C=C(C)CC1C2c3c(Br)cccc3C(CC2(C)C)N1Cc1c[nH]c2ccccc12 (racemic) | –
– | Not Active | C=C(C)CC1C2c3c(Br)cccc3C(CC2(C)C)N1Cc1ccc2c(c1)OCO2 (racemic) | –
– | Not Active | C=C(C)CC1C2c3c(Br)cccc3C(CC2(C)C)N1Cc1cc(C)on1 (racemic) | –
– | Not Active | C=C(C)CC1C2c3c(Br)cccc3C(CC2(C)C)N1Cc1cccc(F)c1 (racemic) | –
– | Not Active | C=C(C)CC1C2c3c(Br)cccc3C(CC2(C)C)N1CCCCC (racemic) | inhibition (HPAEC [4]): Active; inhibition (HPAEC [5]): inactive; inhibition [6]: Active; inhibition [7]: Active; inhibition (Cardiac muscle cell [8]): Active; inhibition (Cardiac muscle cell [9]): Active; inhibition (Fibroblast): Active
– | Not Active | C=C(C)CC1C2c3c(-c4ccc(Cl)c(Cl)c4)cccc3C(CC2(C)C)N1CCCCC (racemic) | –
– | Not Active | C=C(C)CC1C2c3c(Br)cccc3C(CC2(C)C)N1S(C)(=O)=O (racemic) | IC50 (NADPH oxidase 1): Not Active
